# “Also recorded” adds a separate entry of the source. Like-named read-outs stand apart in the source and are kept apart here.
# Legend:
# human adenovirus (HAdV) = assay: microbe, parasite or virus in culture; type: cell-based, human adenovirus serotype 11 (RCAd11pGFP)
# [1] = test system: Rift Valley fever virus (RVFV); type: cell-based; settings: A549 cells, primary screening, 100 to 0.4 µM, 16 h post infection
# SARS-CoV-2 [2] = assay: microbe, parasite or virus in culture; type: cell-based; settings: for IC50: read-out: IC50 against SARS-CoV-2
# SARS-CoV-2 [3] = assay: microbe, parasite or virus in culture; type: cell-based; settings: Calu-3 cells, 48 h, immunofluorescence of infected cells
# adenovirus 5 (HAdV5) = assay: microbe, parasite or virus in culture; type: cell-based; settings: read-out: IC50 against HAdV type 5
# [4] = test system: chikungunya virus (CHKV) 181/25; type: cell-based
# [5] = test system: dengue virus (DNV) serotype 2 D2Y98P; assay: microbe, parasite or virus in culture; type: cell-based, dengue virus serotype 2; settings: read-out: IC50 against dengue virus type 2
# [6] = test system: herpes simplex virus (HSV) 1 MacIntyre; type: cell-based, herpes simplex virus 1
# [7] = test system: Herpes simplex virus (HSV) 2 MS; type: cell-based, herpes simplex virus 2
# [8] = test system: influenza virus (INFV) H1N1 A/California/07/09; type: cell-based; settings: read-out: IC50 against influenza virus; Vero cells, MOI 0.01, 35 °C, TPCK trypsin
# [9] = test system: Zika virus (ZIKV) FSS13025; type: cell-based
# [10] = test system: human cytomegalovirus (HCMV) Merlin strain; assay: HCMV infectivity assay in human foreskin fibroblasts; type: cell-based; settings: 5 days, column of table headed IC50 [µM]
# TIE-2 [11] = target: T1, TIE-2 (Homo sapiens, UniProt Q02763); assay: Vanadate-induced TIE-2 receptor phosphorylation in CHO cells; type: cell-based; design: host or cells: Chinese hamster ovary (CHO) cells; settings: Chinese hamster ovary (CHO) cells, read-out: IC50, vanadate-induced inhibition of TIE-2 receptor phosphorylation
# T1 sequence (Q02763 23-1124): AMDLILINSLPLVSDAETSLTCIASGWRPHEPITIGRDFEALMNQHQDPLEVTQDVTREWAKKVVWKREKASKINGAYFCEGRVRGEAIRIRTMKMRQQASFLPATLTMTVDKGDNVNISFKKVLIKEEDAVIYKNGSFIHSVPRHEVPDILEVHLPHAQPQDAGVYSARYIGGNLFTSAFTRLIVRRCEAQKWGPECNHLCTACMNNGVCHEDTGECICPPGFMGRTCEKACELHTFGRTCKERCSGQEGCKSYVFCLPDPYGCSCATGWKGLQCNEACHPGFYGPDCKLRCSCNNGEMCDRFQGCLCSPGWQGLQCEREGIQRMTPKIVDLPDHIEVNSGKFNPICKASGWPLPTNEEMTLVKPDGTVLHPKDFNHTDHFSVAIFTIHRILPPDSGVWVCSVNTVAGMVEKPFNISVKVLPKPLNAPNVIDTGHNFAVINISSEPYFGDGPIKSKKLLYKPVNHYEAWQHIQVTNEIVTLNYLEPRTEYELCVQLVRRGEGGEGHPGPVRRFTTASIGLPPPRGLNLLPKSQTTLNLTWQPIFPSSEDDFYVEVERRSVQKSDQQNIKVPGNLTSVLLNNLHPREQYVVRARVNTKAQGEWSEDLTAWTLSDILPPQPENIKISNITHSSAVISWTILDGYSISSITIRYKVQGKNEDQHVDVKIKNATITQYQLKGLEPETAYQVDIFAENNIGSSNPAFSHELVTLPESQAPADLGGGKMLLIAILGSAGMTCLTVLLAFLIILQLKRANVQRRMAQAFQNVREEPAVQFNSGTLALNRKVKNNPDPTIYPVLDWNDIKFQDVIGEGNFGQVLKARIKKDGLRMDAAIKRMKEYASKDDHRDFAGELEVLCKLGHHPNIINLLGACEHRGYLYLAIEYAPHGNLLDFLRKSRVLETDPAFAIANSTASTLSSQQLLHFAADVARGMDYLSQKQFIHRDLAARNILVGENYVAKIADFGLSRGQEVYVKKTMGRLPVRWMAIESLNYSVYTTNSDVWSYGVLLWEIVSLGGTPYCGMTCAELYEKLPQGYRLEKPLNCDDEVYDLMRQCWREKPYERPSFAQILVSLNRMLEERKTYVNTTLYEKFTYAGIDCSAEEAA
# SARS-CoV-2 [12] = assay: Primary human mucociliary airway (ALI) SARS-CoV-2 infection model; type: cell-based; settings: tested at 10 µM
# SARS-CoV-2 [13] = type: in vivo, mice (B6.Cg-Tg(K18-ACE2)2Prlmn/J); settings: K18-ACE2 mice, oral b.i.d., vs placebo
# CDK8 = CDK8 (Homo sapiens, UniProt P49336); assay: Kinase inhibition profile: CDK8; type: biochemical; settings: kinase inhibition profile (DSTT, Cerep); preliminary
# CDK8, sequence (P49336 whole entry): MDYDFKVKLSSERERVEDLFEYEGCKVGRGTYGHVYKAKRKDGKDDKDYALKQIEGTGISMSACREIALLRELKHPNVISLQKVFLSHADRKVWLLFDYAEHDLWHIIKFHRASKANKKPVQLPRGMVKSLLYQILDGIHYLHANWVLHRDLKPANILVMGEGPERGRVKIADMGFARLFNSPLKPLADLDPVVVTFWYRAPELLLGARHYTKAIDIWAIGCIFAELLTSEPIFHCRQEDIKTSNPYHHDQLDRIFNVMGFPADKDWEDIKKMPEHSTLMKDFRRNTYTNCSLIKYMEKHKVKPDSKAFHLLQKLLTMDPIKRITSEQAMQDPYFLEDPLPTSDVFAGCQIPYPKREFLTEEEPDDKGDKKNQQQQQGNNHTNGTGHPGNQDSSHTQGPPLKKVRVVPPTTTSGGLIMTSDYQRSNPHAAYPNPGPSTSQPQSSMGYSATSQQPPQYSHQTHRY
# CDK8, sequence (P24863 whole entry partner): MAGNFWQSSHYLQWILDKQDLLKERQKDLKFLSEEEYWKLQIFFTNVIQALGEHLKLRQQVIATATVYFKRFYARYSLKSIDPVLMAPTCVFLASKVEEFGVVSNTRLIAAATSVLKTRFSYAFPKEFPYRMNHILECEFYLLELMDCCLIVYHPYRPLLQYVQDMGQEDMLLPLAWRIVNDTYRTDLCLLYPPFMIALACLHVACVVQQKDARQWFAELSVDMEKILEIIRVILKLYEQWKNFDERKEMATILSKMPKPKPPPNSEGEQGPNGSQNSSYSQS
# MAPK14 = MAPK14 (Homo sapiens, UniProt Q16539); assay: Kinase inhibition profile: MAPK14; type: biochemical; settings: kinase inhibition profile (DSTT, Cerep); preliminary
# MAPK14, sequence (Q16539 whole entry): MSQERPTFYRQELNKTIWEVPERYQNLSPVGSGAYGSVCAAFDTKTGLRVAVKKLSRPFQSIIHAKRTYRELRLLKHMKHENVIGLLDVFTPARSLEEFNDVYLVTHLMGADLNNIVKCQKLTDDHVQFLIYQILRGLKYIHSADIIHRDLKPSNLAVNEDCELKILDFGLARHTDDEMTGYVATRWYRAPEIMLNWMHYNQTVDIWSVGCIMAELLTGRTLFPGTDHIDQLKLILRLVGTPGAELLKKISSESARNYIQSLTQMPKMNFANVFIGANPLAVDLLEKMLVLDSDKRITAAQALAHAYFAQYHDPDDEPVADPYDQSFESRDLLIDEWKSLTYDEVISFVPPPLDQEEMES
# MAPK11 = MAPK11 (Homo sapiens, UniProt Q15759); assay: Kinase inhibition profile: MAPK11; type: biochemical; settings: kinase inhibition profile (DSTT, Cerep); preliminary
# MAPK11, sequence (Q15759 whole entry): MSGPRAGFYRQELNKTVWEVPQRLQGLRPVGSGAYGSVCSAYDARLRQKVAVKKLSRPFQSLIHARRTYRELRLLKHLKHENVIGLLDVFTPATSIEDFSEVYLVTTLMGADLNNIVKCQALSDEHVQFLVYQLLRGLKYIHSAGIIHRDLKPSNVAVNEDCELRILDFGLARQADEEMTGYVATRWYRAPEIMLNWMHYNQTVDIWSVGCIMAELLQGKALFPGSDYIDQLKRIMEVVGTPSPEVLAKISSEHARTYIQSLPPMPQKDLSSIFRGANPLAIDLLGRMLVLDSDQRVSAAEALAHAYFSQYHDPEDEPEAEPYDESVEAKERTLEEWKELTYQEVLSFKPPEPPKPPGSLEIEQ
# TIE-2 [14] = target: T1, TIE-2; assay: Kinase inhibition profile: TIE-2; type: biochemical; settings: kinase inhibition profile (DSTT, Cerep); preliminary
# KDR = KDR (Homo sapiens, UniProt P35968); assay: Kinase inhibition profile: KDR
# KDR, sequence (P35968 20-1356): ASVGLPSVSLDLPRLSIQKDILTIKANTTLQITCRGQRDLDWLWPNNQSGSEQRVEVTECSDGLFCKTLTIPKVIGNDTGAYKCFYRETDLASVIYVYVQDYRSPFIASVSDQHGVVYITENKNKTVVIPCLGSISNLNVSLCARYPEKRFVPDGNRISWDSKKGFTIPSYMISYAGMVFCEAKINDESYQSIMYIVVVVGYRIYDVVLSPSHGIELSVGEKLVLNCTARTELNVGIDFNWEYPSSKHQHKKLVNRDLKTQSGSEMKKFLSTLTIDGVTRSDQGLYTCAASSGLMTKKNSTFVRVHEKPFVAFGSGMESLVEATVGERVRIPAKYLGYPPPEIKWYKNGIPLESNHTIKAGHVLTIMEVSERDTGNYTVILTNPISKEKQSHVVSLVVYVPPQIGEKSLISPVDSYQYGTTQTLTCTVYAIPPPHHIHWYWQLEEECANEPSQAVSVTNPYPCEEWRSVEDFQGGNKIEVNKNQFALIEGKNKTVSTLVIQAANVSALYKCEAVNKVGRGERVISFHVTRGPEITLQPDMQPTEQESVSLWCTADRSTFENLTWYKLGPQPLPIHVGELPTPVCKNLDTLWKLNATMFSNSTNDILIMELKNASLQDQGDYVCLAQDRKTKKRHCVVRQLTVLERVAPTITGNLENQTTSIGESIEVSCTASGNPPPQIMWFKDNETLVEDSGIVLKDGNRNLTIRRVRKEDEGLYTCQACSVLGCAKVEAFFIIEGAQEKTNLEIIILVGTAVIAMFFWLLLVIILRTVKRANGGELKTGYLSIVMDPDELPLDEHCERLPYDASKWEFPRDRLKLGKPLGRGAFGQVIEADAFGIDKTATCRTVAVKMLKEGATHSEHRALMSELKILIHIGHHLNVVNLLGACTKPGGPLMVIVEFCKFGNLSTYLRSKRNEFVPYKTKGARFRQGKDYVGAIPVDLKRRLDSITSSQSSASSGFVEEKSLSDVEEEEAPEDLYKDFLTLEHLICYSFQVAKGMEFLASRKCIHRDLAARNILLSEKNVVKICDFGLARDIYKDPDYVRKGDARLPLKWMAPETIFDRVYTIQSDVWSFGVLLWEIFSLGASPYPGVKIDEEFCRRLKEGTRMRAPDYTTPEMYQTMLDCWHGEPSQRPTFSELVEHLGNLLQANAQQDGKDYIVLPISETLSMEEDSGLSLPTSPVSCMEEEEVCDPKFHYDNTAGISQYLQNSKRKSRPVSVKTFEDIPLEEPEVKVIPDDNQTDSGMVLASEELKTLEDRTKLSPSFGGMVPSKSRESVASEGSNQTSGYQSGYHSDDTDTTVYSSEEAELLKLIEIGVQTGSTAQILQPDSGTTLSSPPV
# [15] = 60 mg/kg (Figure 7), 100 mg/kg (methods)
SMILES,antiviral activity against RVFV (in words) [1],"IC50 (adenovirus 5 (HAdV5); Human mastadenovirus C, Vero) [nM]",IC50 (adenovirus 5 (HAdV5)) [nM],"IC50 ([5]; Dengue virus, Vero) [nM]",IC50 [5] [nM],activity against HSV-1 [6],activity against HSV-2 [7],IC50 [8] [nM],activity against ZIKV [9],IC50 (TIE-2 [11]) [nM],antiviral activity against HAdV (in words) (human adenovirus (HAdV)),further results
CNC(=O)c1cc(Oc2ccc(NC(=O)Nc3cc(C(F)(F)F)ccc3-n3cncn3)cc2)ccn1 [Compound 1],antiviral activity was seen at 25 µM,1160,1160,8430,8430,Not Active,Active,39500,Not Active,27,,"EC50 (human adenovirus (HAdV); Human adenovirus sp., A549, 24 h, read-out: EC50 against HAdV): 4500 nM; SI (selectivity index) (SARS-CoV-2 [2]; HeLa-ACE2 cells): 5; IC50 (SARS-CoV-2 [2]; Severe acute respiratory syndrome coronavirus 2, HeLa-ACE2, 24 h): 3200 nM; IC50 against SARS-CoV-2 (SARS-CoV-2 [3]): did not exhibit antiviral properties; activity against CHKV [4]: Not Active; activity against HCMV [10]: Active"
CNC(=O)c1cc(Oc2ccc(NC(=O)Nc3cc(C(F)(F)F)ccc3-n3ccnc3)cc2)ccn1 [Compound 2],dose–response antiviral activity,,,,,,,,,,did not have activity,IC50 (TIE-2 [11]; unit given as nm): 3 nM
O=C(Nc1ccc(Oc2ccncc2)cc1)Nc1cc(C(F)(F)F)ccc1-n1cncn1 [Compound 3],most potent compound,,,,,,,,,36,most potent compound,host cell toxicity by visual observation (A549 cells): displayed host cell toxicity at the highest concentrations
CNC(=O)c1cc(Oc2ccc(NC(=O)Nc3cc(C)c(Cl)cc3-n3cccc3)cc2)ccn1 [Compound 4],,600,630,10,12,Not Active,dose-dependent activity; also recorded: Active,10700,dose-dependent activity; also recorded: Active,126,,"IC50 (SARS-CoV-2 [2]; Severe acute respiratory syndrome coronavirus 2, HeLa-ACE2 cells, 24 h, immunofluorescence of infected cells): 500 nM; IC50 (SARS-CoV-2 [3]; Severe acute respiratory syndrome coronavirus 2, read-out: IC50 against SARS-CoV-2): 7700 nM; activity against CHKV ([4]; Vero cells, MOI 0.01, column of table headed IC50 [µM]): Not Active; inhibition of SARS-CoV-2 replication in primary human mucociliary airway model (SARS-CoV-2 [12]): showed activity; animal survival after lethal SARS-CoV-2 challenge (SARS-CoV-2 [13]; [15]): protective effect on animal survival; also recorded: increased survival; body weight loss after infection (SARS-CoV-2 [13]; [15]): reduced body weight loss; viral titers in lungs (SARS-CoV-2 [13]; days 1, 3 and 6 after infection, qRT-PCR): statistically significant reduction in viral titers; also recorded: reduced viral load in lungs; IC50 (CDK8): 31 nM; IC50 (MAPK14): 87 nM; IC50 (MAPK11): 430 nM; inhibition of TIE-2 (in words) (TIE-2 [14]): strong inhibition; IC50 (KDR): 7.9 nM"

# From article PMC11945542 (Viruses, 2025)
